These results are taken from patent US20060019987A1, “Methods and compositions for inhibiting, destroying, and/or inactivating viruses” (priority 2004, published 2006).

Structures are written as SMILES.

For one assay, the system named is RSV (Long strain). Briefly: Virucidal efficacy: syncytia formation by pretreated RSV in Hep-2 cell monolayers. Type of assay: cell-based. Conditions: RSV pretreated 1 h at 35° C.; Hep-2 cells; two experiments (starting 10^7 PFU and 109 PFU); 0.05% CPC. On the procedure:
(§1) The experiments included human (hAd) serotypes of species B (hAd3), C (hAd5), and E (hAd4) and the long strain of RSV, representative of A. Two independent experiments were carried out for each virus.
One hundred microliters (μl) of each virus suspension containing 5×10^6 PFU or 5×10^5 PFU were subsequently used to infect monolayers of Hep-2 cells in quadruplicate in 24-well plates. […] Viral cytopathic effect was examined at 2 days post infection. One hundred μl of a dilution 1:10 of the original treated samples containing […] were used to infect additional wells (Block C: PBS-treated 1:10; E: SinoFresh® product-treated 1:10; G: CPC-treated 1:10).
A second independent experiment was carried out with a starting concentration of 10^9 PFU.

A further assay relates to hAd4 (RI-67 strain). Briefly: Virucidal efficacy: cytopathic effect of pretreated hAd4 in A549 cell monolayers. Type of assay: cell-based. The settings on record: hAd4 pretreated 1 h at 35° C.; 10^7 PFU (and 1:10 dilution); A549 lung epithelial cells; 2 days post infection; vs PBS-treated virus (marked CPE). Here is the method:
as §1
Phosphate buffered saline (PBS) pretreatment of virus suspensions was used as a control.
After the 1-h incubation, 100 μl of the treated virus containing a total of 10^7 to 10^6 plaque forming units (PFU) of virus or their corresponding 1:10 or 1:100 dilutions were used to infect monolayers of A549 lung epithelial cells in quadruplicate 24-well plates. […] Viral cytopathic effect was examined at 2 days post infection. One hundred μl of a dilution 1:10 of the original treated samples containing 10^6 PFU were used to infect additional wells. (C: PBS-treated 1:10; E: SinoFresh® product-treated 1:10; G: CPC-treated 1:10).
On the technique in general: Cytopathic effects are the visible damage that an infection or toxin causes in cultured cells.

Consider `CCCCCCCCCCCCCCCC[n+]1ccccc1` [CPC, 1-hexa-decyl pyridinium chloride], for which, in the assay with RSV (Long strain), the “syncytia formation in infected monolayers” value is “prevented syncytia formation”. Besides, the “development of cytopathic effect (CPE)” value in the assay on hAd4 (RI-67 strain) is on record as “no obvious CPE”.
